Experimental data taken from patent US5576187A (priority 1994, dated 1996).

Tested on: anti-chlorpyrifos monoclonal antibody
Type: binding, mouse

Row | SMILES | relative reactivity: concentration equivalent to 1 ppB of chlorpyrifos in the immunoassay [ppm]
1 | CCOP(=O)(Cc1ccc(C)cc1)OCC [diethyl 4-methylbenzylphosphonate] | 50
2 | Cn1c(Cl)c(Cl)cc(Cl)c1=O [N-methyl-3,5,6-trichloro-2-pyridinone] | 75
